In patent publication US5298614A, “Size limited double stranded poly I poly(cytidylate/4-thiouridylate)” (Nippon Shinyaku Co. Ltd., priority 1986, dated 1994):
Marks after values point to notes of the source that are not given here.

Key:
[1] = system: HeLa S3; assay: Proliferation inhibiting action in nude mice bearing human tumor cells; type: in vivo, human tumor cells in nude mice (BALB/c); conditions: test sample 100 μg/mouse i.v., 5-FU 25 mg/kg i.p., twice a week for four weeks
Method: (§1) Each 2.5×10^6 of cell strain HeLa S3 derived from human uterus neck and cell strain Hep-2 derived from throat cancer cells were transplanted under the skin of the nude abdomen of male nude mice 5 weeks old derived from BALB/c and, on the 7th to 10th day after the transplantation, living cohesion of tumor was confirmed. Then 100 μg/mouse of test sample (intravenously) and 25 mg/kg of 5-FU (intraperitoneally) were administered twice a week for four weeks. Tumor was extracted on the fourth week after the admininstration and the weight were measured.
(§2) The test samples used were the same as that in the above (1).

[2] = system: Hep-2; assay: as above; type: in vivo, human tumor cells in nude mice (BALB/c); conditions: test sample 100 μg/mouse i.v., 5-FU 25 mg/kg i.p., twice a week for four weeks
Method: as §1, §2

[3] = system: interleukin 1 (cohesive cells from human peripheral blood); assay: Inducing activity of interleukin 1, 3H-thymidine in-take into PHA-stimulated mice thymus cells; type: cell-based; conditions: samples 100α/ml; interleukin 1 1.25 units/ml; saline control 3370
Method: Mononuclear particles were separated from normal human heparin-added peripheral blood by specific gravity centrifugation method using Ficoll-Hypaque (Pharmacia, Ficollpaque, trademark), the numbers were adjusted to 5×10^6 /ml in a 10% FCS-added RPMI medium, placed in a plastic dish, incubated at 37° C. for one hour, and the cohesive cells were used as an interleukin 1-producing source.
The sample to be tested was added to the 5×10^5 /ml of single particle, incubated at 37° C. for 24 hours, and the interleukin 1 activity in the supernatant liquid was determined by measuring a ^3 H-thymidine in-take method into a PHA-stimulated mice thymus cells using a proliferation ability of the thymus cells as a target. The control was physiological saline solution.

[4] = system: venom phosphodiesterase; assay: Resistance against hydrolysis, time until hydrolysis arrives at 50%; type: in vitro ADME; conditions: venom phosphodiesterase enzymatic reaction
Method: Then the resistance against hydrolysis by RNase was compared in terms of the time ratio until the hydrolysis arrives at 50%. Thus, under conditions such as venom phosphodiesterase enzymatic reaction, poly I:poly C was 50 minutes while those of nucleic acid derivatives containing 4-thiouridine (SH group) and its S--S bond (n=20) are 60 minutes and, by contrast, those of nucleic acid derivatives (n=20) containing uridine (OH group) were as short as 20 minutes.

[5] = Pyrogen test to rabbits; type: in vivo; conditions: 0.2 microgram/kg i.v., 4 hours after injection
Method: Injection of poly I:poly C in vivo has been known to be pyrogenic. […] On the contrary, the nucleic acid derivatives of the present invention (both SH and S--S substances in the above cytotoxic experiment) show only 0.25° C. rise in body temperature on average and the result of the pyrogenic test was negative. In those experiments, three rabbits per group were used and a solution of the sample (0.2 microgram/kg) in 10 ml of physiological saline solution was intravenously injected beneath the ear of the rabbits and the body temperature at 4 hours after the injection was observed.

[6] = 50% melting temperature (Tm) and hyperchromicity, UV absorbance at 260 nm; type: physicochemical; conditions: neutral condition, aqueous buffer solution containing 0.1M sodium ion
Method: If the stabilization of the double stranded complex formation in nucleic acid polymer is shown with reference to the 50% melting temperature (Tm value), poly I:poly C has a 59.0° C. under a neutral condition in aqueous buffer solution containing 0.1M sodium ion while the SH-substituted nucleic acid derivative containing 4-thiouridine (n=20) and the S-substituted nucleic acid derivative (n=20) have a 59.5° C. and 59.3° C., respectively.
Among the nucleic acid derivatives obtained by the above example, those with 50 to 2,000 residue numbers of molecular size distribution were taken and their fusing curves were measured.
Sample I or II (0.7 OD/ml) in 10 mM Tris buffer (pH 7.5) containing 0.1M sodium chloride was warmed, at the rising rate of 2° C./4 minutes, from 20° C. to 90° C., the ultraviolet absorbancy at each temperature was measured at the wavelength of 260 nm, and an increase of ultraviolet absorbancy by a hyperchromicity was represented by a relative ratio giving the state at 20° C. as a base. A Beckmann-DU-8B spectrophotometer was used for the measurement. Melting of the nucleic acid derivatives was gradually observed during 35° C. to 55° C. and, at around 59° C., a sudden fusion curve was obtained. […]

For `O=c1[nH]cc(F)c(=O)[nH]1` [5-FU, 5-fluorouracil], the “Inhibition Rate (%)” value [1] was 47%, the “Weight (g) ± S.E. of tumor” value ([1]; control 3.85 ± 0.23) was 2.06 ± 0.35 g and the “Inhibition Rate (%)” value [2] was 30%. For the same compound, the “Weight (g) ± S.E. of tumor” value ([2]; control 0.88 ± 0.07) was 0.56 ± 0.12 g.

In the case of Interleukin 1, the “In-Take Amount” value [3] is reported as 12517 DPM (× 10^4).

In the case of “polyinosinic acid-polycitydylic acid [poly I:poly C]”, the “time until the hydrolysis arrives at 50%” value [4] is reported as 50 min, the “body temperature rise, average” value [5] is reported as 1.45 °C and the “50% melting temperature (Tm value)” value [6] is reported as 59.0 °C.
